Measured values taken from US8507545B2, “Cytotoxic T cell activator comprising EP4 agonist” (National University Corporation, Hamamatsu University …, priority 2007, dated 2013).

Assays:
[1] = test system: B16 melanoma cells; experiment: Life-prolonging effect in melanoma-inoculated mice; format: in vivo, B6 mice; conditions: 10 animals in group
Protocol: 2×10^5 B16 melanoma cells were transplanted to B6 mice in the same manner as Example 3. On day 5 after transplantation, the right auricle of each B6 mouse was treated with each test substance (TRP-2 (10 μg for one side of each auricle), Compound A-(1) (20 μL of 100 μM solution for one side of each auricle) by the same method as Example 3. Ten days later, the left auricle was treated in the same manner, and the mice in each experimental group were examined for mortality. Three experimental groups were established: (1) a group undergoing TS alone, (2) a group undergoing TS followed by application of Compound A-(1), and (3) a group undergoing TS followed by application of TRP-2 and Compound A-(1) (10 animals in each group).

[2] = test system: TRP-2-specific CTLs; experiment: Activation of cytotoxic T cells in isolated Langerhans cells co-cultured with lymphocytes; format: cell-based, C57BL/6(B6) mouse
Protocol: A given area of an auricle epidermal sheet was removed from the corneal layer of one auricle of each C57BL/6(B6) mouse, and trypsinized to yield an epidermal cell suspension. The epidermal cell suspension obtained was subjected to panning using an antibody specific for I-A^b antigen to isolate epidermal Langerhans cells. After each test substance (TRP-2 (concentration; 10 μg/mL) and Compound A-(1) (1 μM)) was added to the Langerhans cells isolated (cell density; 10^5 cells per mL), the cells were cultured with a medium (cRPMI1640 medium; Sigma-Aldrich Japan). Half a day later, the cells were co-cultured with splenocytic lymphocytes isolated from […] for 7 days. Subsequently, by a flowcytometric analysis (FACScaliber; Becton, Dickinson and Company.) using a tetramer (Medical & Biological Laboratories Co., Ltd.), the frequency of TRP-2-specific CTLs was determined relative to the total number of mononucleocytes in the medium as 100. Three experimental groups were established: (1) a group with no treatment, (2) a group with the addition of TRP-2, and (3) a group with the addition of both TRP-2 and Compound A-(1).

COCc1cccc(C[C@H](O)/C=C/[C@H]2[C@H](O)CC(=O)[C@@H]2SCCCSCC(=O)O)c1 [Compound A-(1), 11α,15α,-dihydroxy-9-oxo-16-(3-methoxymethylphenyl)-17,18,19,20-tetranol-3,7-dithiaprost-13E-enoic acid]
number of surviving individuals ([1]; day 16 after B16 melanoma cells inoculation, TS followed by Compound A-(1)): 10 animals | number of surviving individuals ([1]; day 16 after B16 melanoma cells inoculation, TS followed by TRP-2 and Compound A-(1)): 10 animals | number of surviving individuals ([1]; day 21 after B16 melanoma cells inoculation, TS followed by Compound A-(1)): 10 animals | number of surviving individuals ([1]; day 21 after B16 melanoma cells inoculation, TS followed by TRP-2 and Compound A-(1)): 10 animals | number of surviving individuals ([1]; day 24 after B16 melanoma cells inoculation, TS followed by Compound A-(1)): 10 animals | number of surviving individuals ([1]; day 24 after B16 melanoma cells inoculation, TS followed by TRP-2 and Compound A-(1)): 10 animals | number of surviving individuals ([1]; day 27 after B16 melanoma cells inoculation, TS followed by Compound A-(1)): 7 animals | number of surviving individuals ([1]; day 27 after B16 melanoma cells inoculation, TS followed by TRP-2 and Compound A-(1)): 10 animals | number of surviving individuals ([1]; day 29 after B16 melanoma cells inoculation, TS followed by Compound A-(1)): 7 animals | number of surviving individuals ([1]; day 29 after B16 melanoma cells inoculation, TS followed by TRP-2 and Compound A-(1)): 10 animals | number of surviving individuals ([1]; day 31 after B16 melanoma cells inoculation, TS followed by Compound A-(1)): 7 animals | number of surviving individuals ([1]; day 31 after B16 melanoma cells inoculation, TS followed by TRP-2 and Compound A-(1)): 10 animals | number of surviving individuals ([1]; day 33 after B16 melanoma cells inoculation, TS followed by Compound A-(1)): 7 animals | number of surviving individuals ([1]; day 33 after B16 melanoma cells inoculation, TS followed by TRP-2 and Compound A-(1)): 10 animals | number of surviving individuals ([1]; day 35 after B16 melanoma cells inoculation, TS followed by Compound A-(1)): 2 animals | number of surviving individuals ([1]; day 35 after B16 melanoma cells inoculation, TS followed by TRP-2 and Compound A-(1)): 10 animals | number of surviving individuals ([1]; day 37 after B16 melanoma cells inoculation, TS followed by Compound A-(1)): 2 animals | number of surviving individuals ([1]; day 37 after B16 melanoma cells inoculation, TS followed by TRP-2 and Compound A-(1)): 10 animals | number of surviving individuals ([1]; day 38 after B16 melanoma cells inoculation, TS followed by Compound A-(1)): 2 animals | number of surviving individuals ([1]; day 38 after B16 melanoma cells inoculation, TS followed by TRP-2 and Compound A-(1)): 10 animals | number of surviving individuals ([1]; day 40 after B16 melanoma cells inoculation, TS followed by Compound A-(1)): 0 animals | number of surviving individuals ([1]; day 40 after B16 melanoma cells inoculation, TS followed by TRP-2 and Compound A-(1)): 8 animals | number of surviving individuals ([1]; day 42 after B16 melanoma cells inoculation, TS followed by Compound A-(1)): 0 animals | number of surviving individuals ([1]; day 42 after B16 melanoma cells inoculation, TS followed by TRP-2 and Compound A-(1)): 8 animals | number of surviving individuals ([1]; day 44 after B16 melanoma cells inoculation, TS followed by Compound A-(1)): 0 animals | number of surviving individuals ([1]; day 44 after B16 melanoma cells inoculation, TS followed by TRP-2 and Compound A-(1)): 5 animals | number of surviving individuals ([1]; day 46 after B16 melanoma cells inoculation, TS followed by Compound A-(1)): 0 animals | number of surviving individuals ([1]; day 46 after B16 melanoma cells inoculation, TS followed by TRP-2 and Compound A-(1)): 4 animals | number of surviving individuals ([1]; day 48 after B16 melanoma cells inoculation, TS followed by Compound A-(1)): 0 animals | number of surviving individuals ([1]; day 48 after B16 melanoma cells inoculation, TS followed by TRP-2 and Compound A-(1)): 2 animals | number of surviving individuals ([1]; day 50 after B16 melanoma cells inoculation, TS followed by Compound A-(1)): 0 animals | number of surviving individuals ([1]; day 50 after B16 melanoma cells inoculation, TS followed by TRP-2 and Compound A-(1)): 2 animals | number of surviving individuals ([1]; day 52 after B16 melanoma cells inoculation, TS followed by Compound A-(1)): 0 animals | number of surviving individuals ([1]; day 52 after B16 melanoma cells inoculation, TS followed by TRP-2 and Compound A-(1)): 2 animals | number of surviving individuals ([1]; day 55 after B16 melanoma cells inoculation, TS followed by Compound A-(1)): 0 animals | number of surviving individuals ([1]; day 55 after B16 melanoma cells inoculation, TS followed by TRP-2 and Compound A-(1)): 2 animals | number of surviving individuals ([1]; day 57 after B16 melanoma cells inoculation, TS followed by Compound A-(1)): 0 animals | number of surviving individuals ([1]; day 57 after B16 melanoma cells inoculation, TS followed by TRP-2 and Compound A-(1)): 1 animals | Ratio of TRP-2-specific CTLs ([2]; addition of both TRP-2 (10 μg/mL) and Compound A-(1) (1 μM), 7 days co-culture, relative to total mononucleocytes in the medium as 100): 6.6 | action of inducing TRP-2-specific CTLs compared with TRP-2 ([2]; isolated Langerhans cells): equivalent
